Structures can show the parent of a compound that is named as a salt.
Tests used:
Format in all cases: biochemical
Bovine LOX = Bovine LOX (Bos taurus (Bovine), UniProt P33072); assay: LOX inhibition, peroxidase-coupled Amplex Red amine oxidase assay; settings: 30 min preincubation at 37° C., putrescine substrate
Procedure, shortened: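 Bovine LOX in 1.2 M urea, 50 mM sodium borate pH 8.2 with 1 μM mofegiline and 0.5 mM pargyline; putrescine at twice KM (e.g. 20 mM for LOX) with Amplex Red/HRP. Fluorescence (ex 565/em 590 nm) read kinetically over 30 min at 37–45 °C; IC50 from slopes.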

Human LOXL2 = Human LOXL2 (Homo sapiens (Human), UniProt Q9Y4K0); assay: LOXL2 inhibition, peroxidase-coupled Amplex Red amine oxidase assay; settings: 30 min preincubation at 37° C., putrescine substrate
Human LOXL2, sequence (Q9Y4K0 26-774): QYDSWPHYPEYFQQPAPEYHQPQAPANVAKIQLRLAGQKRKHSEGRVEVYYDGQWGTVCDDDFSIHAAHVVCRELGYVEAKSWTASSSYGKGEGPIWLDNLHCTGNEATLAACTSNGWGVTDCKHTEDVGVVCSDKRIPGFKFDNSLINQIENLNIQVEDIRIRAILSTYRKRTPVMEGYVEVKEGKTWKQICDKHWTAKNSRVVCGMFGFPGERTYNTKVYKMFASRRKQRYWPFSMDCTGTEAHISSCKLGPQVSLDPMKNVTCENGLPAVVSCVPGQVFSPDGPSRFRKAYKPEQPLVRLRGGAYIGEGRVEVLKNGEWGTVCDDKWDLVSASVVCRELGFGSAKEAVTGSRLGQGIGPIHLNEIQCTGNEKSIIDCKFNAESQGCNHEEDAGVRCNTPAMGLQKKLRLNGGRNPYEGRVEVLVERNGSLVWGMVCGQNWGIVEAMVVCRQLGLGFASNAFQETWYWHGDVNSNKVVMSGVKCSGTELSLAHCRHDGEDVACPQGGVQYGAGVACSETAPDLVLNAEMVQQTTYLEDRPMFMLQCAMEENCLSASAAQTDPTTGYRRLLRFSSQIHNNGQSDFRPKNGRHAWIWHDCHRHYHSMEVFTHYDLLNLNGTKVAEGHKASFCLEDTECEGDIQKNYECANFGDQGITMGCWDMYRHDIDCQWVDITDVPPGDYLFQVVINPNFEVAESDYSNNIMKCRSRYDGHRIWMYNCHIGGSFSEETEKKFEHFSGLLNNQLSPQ
Procedure, shortened: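 Enzyme in 1.2 M urea, 50 mM sodium borate pH 8.2 with 1 μM mofegiline and 0.5 mM pargyline, preincubated 30 min at 37° C with compound (11-point CRC). Putrescine at twice KM (10 mM for LOXL2) with Amplex Red/HRP; fluorescence (ex 565, em 590) read kinetically 30 min; IC50 from slopes.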

[1] = biological target: human recombinant SSAO/VAP-1 (Homo sapiens (Human), UniProt Q16853); assay: Inhibition of human recombinant SSAO/VAP-1 amine oxidase activity; settings: 30 min preincubation at 37° C., 600 μM benzylamine
human recombinant SSAO/VAP-1, sequence (Q16853 34-763): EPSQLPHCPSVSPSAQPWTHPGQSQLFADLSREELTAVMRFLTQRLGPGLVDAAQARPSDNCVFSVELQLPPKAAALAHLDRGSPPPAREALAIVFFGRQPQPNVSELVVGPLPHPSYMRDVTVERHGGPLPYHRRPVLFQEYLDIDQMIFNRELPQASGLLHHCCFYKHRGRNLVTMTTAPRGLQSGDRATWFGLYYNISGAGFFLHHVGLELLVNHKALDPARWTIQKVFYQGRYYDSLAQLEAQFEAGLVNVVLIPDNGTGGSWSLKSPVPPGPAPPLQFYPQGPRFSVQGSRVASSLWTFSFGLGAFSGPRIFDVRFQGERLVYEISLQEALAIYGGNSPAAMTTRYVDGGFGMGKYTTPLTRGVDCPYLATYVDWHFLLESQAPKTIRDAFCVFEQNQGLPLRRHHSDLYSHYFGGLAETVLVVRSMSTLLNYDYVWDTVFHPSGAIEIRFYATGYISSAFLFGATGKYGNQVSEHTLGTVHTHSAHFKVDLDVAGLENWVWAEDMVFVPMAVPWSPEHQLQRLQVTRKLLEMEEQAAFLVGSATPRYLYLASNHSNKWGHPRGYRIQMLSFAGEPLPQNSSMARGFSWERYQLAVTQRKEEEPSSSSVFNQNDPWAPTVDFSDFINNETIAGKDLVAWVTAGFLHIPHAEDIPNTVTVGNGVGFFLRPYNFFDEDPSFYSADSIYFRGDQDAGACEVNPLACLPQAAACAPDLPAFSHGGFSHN
Procedure, shortened: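 Purified SSAO/VAP-1 (residues 34-763, expressed in CHO Lec 8 cells; 0.25 μg/mL) preincubated 30 min at 37° C with compound in 0.1 M sodium phosphate pH 7.4. Reaction mix of 600 μM benzylamine, 120 μM Amplex Red and 1.5 U/mL HRP added; fluorescence (ex 565/em 590 nm) read every 2.5 min for 30 min; IC50 from kinetic slopes over 4-11 point curves.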

Recombinant human MAO-B = Recombinant human MAO-B (Homo sapiens (Human), UniProt P27338); assay: Inhibition of human recombinant MAO-B; settings: benzylamine 100 μM
Recombinant human MAO-B, sequence (P27338 whole entry): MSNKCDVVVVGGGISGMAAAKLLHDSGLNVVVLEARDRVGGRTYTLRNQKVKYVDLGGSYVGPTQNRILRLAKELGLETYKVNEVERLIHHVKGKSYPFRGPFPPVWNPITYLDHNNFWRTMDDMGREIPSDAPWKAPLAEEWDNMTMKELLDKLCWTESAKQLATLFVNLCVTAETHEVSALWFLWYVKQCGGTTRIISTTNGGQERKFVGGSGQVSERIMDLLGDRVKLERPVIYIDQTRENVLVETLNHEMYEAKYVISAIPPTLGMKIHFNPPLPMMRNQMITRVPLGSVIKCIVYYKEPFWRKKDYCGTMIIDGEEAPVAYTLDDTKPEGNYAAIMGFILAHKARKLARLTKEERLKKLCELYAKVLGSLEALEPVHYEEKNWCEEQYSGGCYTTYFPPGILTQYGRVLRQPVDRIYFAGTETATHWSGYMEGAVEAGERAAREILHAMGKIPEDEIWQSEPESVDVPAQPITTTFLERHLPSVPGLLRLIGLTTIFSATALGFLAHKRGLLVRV
Procedure, shortened: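 Recombinant human MAO-B used as enzyme source (0.06 mg/mL, stated concentration). Run as for the human SSAO/VAP-1 assay, except benzylamine substrate at 100 μM.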

Bovine LOX, sequence (P33072 170-418): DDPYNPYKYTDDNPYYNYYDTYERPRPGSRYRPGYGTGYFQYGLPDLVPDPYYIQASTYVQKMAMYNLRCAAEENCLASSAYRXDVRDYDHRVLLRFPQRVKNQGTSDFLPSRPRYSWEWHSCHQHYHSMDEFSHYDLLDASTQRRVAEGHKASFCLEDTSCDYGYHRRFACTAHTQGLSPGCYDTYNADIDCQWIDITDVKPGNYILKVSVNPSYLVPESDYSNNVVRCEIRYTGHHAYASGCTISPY

Compound	IC50 (Bovine LOX) [nM]	IC50 (Human LOXL2) [nM]	IC50 [1] [nM]	IC50 (Recombinant human MAO-B) [nM]
Cc1c(-c2cncc(S(=O)(=O)N(C)C)c2)c2c(Cl)cccc2n1C/C(F)=C/CN [Compound 75, (Z)-5-(1-(4-amino-2-fluorobut-2-en-1-yl)-4-chloro-2-methyl-1H-indol-3-yl)-N,N-dimethylpyridine-3-sulfonamide]	> 300	< 300	> 3000	> 3000
Cc1c(-c2cncc(S(=O)(=O)N(C)C)c2)c2ccc(Cl)cc2n1C/C(F)=C/CN [Compound 67, (Z)-5-(1-(4-amino-2-fluorobut-2-en-l-yl)-6-chloro-2-methyl-1H-indol-3-yl)-N,N-dimethylpyridine-3-sulfonamide, Dihydrochloride]	> 300	< 300	> 3000	> 3000
CCOC(=O)c1ccc2c(c1)c(-c1cccc(Cl)c1)c(C)n2C/C(F)=C/CN [Compound 27, ethyl (Z)-1-(4-amino-2-fluorobut-2-en-1-yl)-3-(3-chlorophenyl)-2-methyl-1H-indole-5-carboxylate]	> 300	< 300	> 3000	> 3000
Cc1c(-c2cccc(S(C)(=O)=O)c2)c2cc(C(=O)N(C)C)ccc2n1C/C(F)=C/CN [Compound 50, (Z)-1-(4-amino-2-fluorobut-2-en-1-yl)-N,N,2-trimethyl-3-(3-(methylsulfonyl)phenyl)-1H-indole-5-carboxamide]	> 300	< 300	> 3000	> 3000
CCOC(=O)c1ccc2c(c1)c(-c1cccc(C(=O)N(C)C)c1)c(C)n2C/C(F)=C/CN [Compound 15, (Z)-ethyl 1-(4-amino-2-fluorobut-2-en-1-yl)-3-(3-(dimethylcarbamoyl)phenyl)-2-methyl-1H-indole-5-carboxylate Hydrochloride]	> 300	< 300	> 3000	> 3000
CNC(=O)c1ccc2c(n1)c(-c1cccc(S(=O)(=O)N(C)C)c1)c(C)n2C/C(F)=C/CN [Compound 46, (Z)-1-(4-amino-2-fluorobut-2-en-1-yl)-3-(3-(N,N-dimethylsulfamoyl)phenyl)-N,2-dimethyl-1H-pyrrolo[3,2-b]pyridine-5-carboxamide]	> 300	< 300	> 3000	> 3000
Cc1c(-c2ccncc2)c2cc(Cl)ccc2n1C/C(F)=C/CN [Compound 76, (Z)-4-(5-chloro-2-methyl-3-(pyridin-4-yl)-1H-indol-1-yl)-3-fluorobut-2-en-1-amine]	> 300	< 300	> 3000	> 3000
CNS(=O)(=O)c1cccc(-c2c(C)n(C/C(F)=C/CN)c3ccc(C(=O)O)cc23)c1 [Compound 18, (Z)-1-(4-amino-2-fluorobut-2-en-l-yl)-2-methyl-3-(3-(N-methylsulfamoyl)phenyl)-1H-indole-5-carboxylic acid, Hydrochloride]	> 300	< 300	> 3000	> 3000
Cc1c(-c2cccc(S(=O)(=O)N(C)C)c2)c2cc(C(=O)N(C)C(C)C)ccc2n1C/C(F)=C/CN [Compound 36, (Z)-1-(4-amino-2-fluorobut-2-en-1-yl)-3-(3-(N,N-dimethylsulfamoyl)phenyl)-N-isopropyl-N,2-dimethyl-1H-indole-5-carboxamide]	> 300	< 300	> 3000	> 3000
Cc1c(-c2cccc(S(=O)(=O)N(C)C)c2)c2nc(C(F)(F)F)ccc2n1C/C(F)=C/CN [Compound 110, (Z)-3-(1-(4-amino-2-fluorobut-2-en-1-yl)-2-methyl-5-(trifluoromethyl)-1H-pyrrolo[3,2-b]pyridin-3-yl)-N,N-dimethylbenzenesulfonamide]	> 300	< 300	> 3000	> 3000
Cc1c(-c2ccccc2)c2cc(S(=O)(=O)N(C)C)ccc2n1C/C(F)=C/CN [Compound 86, (Z,)-1-(4-amino-2-fluorobut-2-en-1-yl)-N,N,2-trimethyl-3-phenyl-1H-indole-5-sulfonamide]	> 300	< 300	> 3000	> 3000
Cc1c(-c2cccc(S(=O)(=O)N(C)C)c2)c2nc(C(=O)NC(C)C)ccc2n1C/C(F)=C/CN [Compound 45, (Z)-1-(4-amino-2-fluorobut-2-en-1-yl)-3-(3-(N,N-dimethylsulfamoyl)phenyl)-N-isopropyl-2-methyl-1H-pyrrolo[3,2-b]pyridine-5-carboxamide]	> 300	< 300	> 3000	> 3000
Cc1c(-c2cccc(S(=O)(=O)N(C)C)c2)c2cnccc2n1C/C(F)=C/CN [Compound 26, (Z)-3-(1-(4-amino-2-fluorobut-2-en-1-yl)-2-methyl-1H-pyrrolo[3,2-c]pyridin-3-yl)-N,N-dimethylbenzenesulfonamide Dihydrochloride]	> 300	< 300	> 3000	> 3000
Cc1c(-c2ccc3c(c2)OCO3)c2cc(S(C)(=O)=O)ccc2n1C/C(F)=C/CN [Compound 92, (Z)-4-(3-(benzo[d][1,3]dioxol-5-yl)-2-methyl-5-(methylsulfonyl)-1H-indol-1-yl)-3-fluorobut-2-en-1-amine]	> 300	< 300	> 3000	> 3000
Cc1c(-c2cccc(S(=O)(=O)N(C)C)c2)c2cccc(C(=O)O)c2n1C/C(F)=C/CN [Compound 48, (Z)-1-(4-amino-2-fluorobut-2-en-1-yl)-3-(3-(N,N-dimethylsulfamoyl)phenyl)-2-methyl-1H-indole-7-carboxylic acid]	> 300	< 300	> 3000	> 3000
Cc1c(-c2cccc(S(=O)(=O)N(C)C)c2)c2cc(-c3ncon3)ccc2n1C/C(F)=C/CN [Compound 55, (Z)-3-(1-(4-amino-2-fluorobut-2-en-1-yl)-2-methyl-5-(1,2,4-oxadiazol-3-yl)-1H-indol-3-yl)-N,N-dimethylbenzenesulfonamide]	> 300	< 300	> 3000	> 3000
Cc1c(-c2cccc(S(=O)(=O)N(C)C)c2)c2cc(S(C)(=O)=O)ccc2n1C/C(F)=C/CN [Compound 97, (Z)-3-(1-(4-amino-2-fluorobut-2-en-1-yl)-2-methyl-5-(methylsulfonyl)-1H-indol-3-yl)-N,N-dimethylbenzenesulfonamide]	> 300	< 300	> 3000	> 3000
Cc1c(-c2cccc(S(=O)(=O)N(C)C)c2)c2nc(C(=O)O)ccc2n1C/C(F)=C/CN [Compound 43, (Z)-1-(4-amino-2-fluorobut-2-en-1-yl)-3-(3-(N,N-dimethylsulfamoyl)phenyl)-2-methyl-1H-pyrrolo[3,2-b]pyridine-5-carboxylic acid]	> 300	< 300	> 3000	> 3000
Cc1c(-c2cncc(S(=O)(=O)N(C)C)c2)c2cc(C(=O)O)ccc2n1C/C(F)=C/CN [Compound 40, (Z)-1-(4-amino-2-fluorobut-2-en-1-yl)-3-(5-(N,N-dimethylsulfamoyl)pyridin-3-yl)-2-methyl-1H-indole-5-carboxylic acid]	> 300	< 300	> 3000	> 3000
Cc1cc(-c2c(C)n(C/C(F)=C/CN)c3ccc(S(C)(=O)=O)cc23)cc(C)n1 [Compound 89, (Z)-4-(3-(2,6-dimethylpyridin-4-yl)-2-methyl-5-(methylsulfonyl)-1H-indol-1-yl)-3-fluorobut-2-en-1-amine]	> 300	< 300	> 3000	> 3000
Cc1c(-c2cccc(S(=O)(=O)N(C)C)c2)c2nc(C(C)(F)F)ccc2n1C/C(F)=C/CN [Compound 111, (Z)-3-(1-(4-amino-2-fluorobut-2-en-1-yl)-5-(1,1-difluoroethyl)-2-methyl-1H-pyrrolo[3,2-b]pyridin-3-yl)-N,N-dimethylbenzenesulfonamide Dihydrochloride]	> 300	< 300	> 3000	> 3000
Cc1c(-c2cccc(S(=O)(=O)N(C)C)c2)c2ccccc2n1C/C(F)=C/CN [Compound 2, (Z)-3-(1-(4-amino-2-fluorobut-2-en-1-yl)-2-methyl-1H-indol-3-yl)-N,N-dimethylbenzenesulfonamide]	> 300	< 300	> 3000	> 3000
Cc1ccc(S(=O)(=O)N(C)C)cc1-c1c(C)n(C/C(F)=C/CN)c2c(F)cc(Cl)cc12 [Compound 82, (Z)-3-(1-(4-amino-2-fluorobut-2-en-1-yl)-5-chloro-7-fluoro-2-methyl-1H-indol-3-yl)-N,N,4-trimethylbenzenesulfonamide]	> 300	< 300	> 3000	> 3000

From patent publication US10717733B2, “Haloallylamine indole and azaindole derivative inhibitors of lysyl oxidases and uses thereof” (PHARMAXIS LTD., priority 2016, dated 2020)
